Consider seven molecules from patent US7585846B2, “Compounds for delivering amino acids or peptides with antioxidant activity into mitochondria and use thereof” (University of Rochester, priority 2003, dated 2009).

The test system of one assay is spinal cord neurons. The assay is described as follows: Oxidative stress-induced apoptosis (condensed and fragmented nuclei, Hoechst staining). It counts as cell-based. From the text:
FIG. 3B is a control for FIG. 3A. FIG. 3C is a bar diagram summary of the percent of neurons with condensed fragmented nuclei after H2O2 treatment. The concentrations of H2O2 used are shown on the x-axis.
Central to the proposed therapeutic intervention is the belief that SCN undergo apoptosis and possibly necrosis under oxidative stress. […] Image pairs, obtained from H2O2-treated (FIG. 3A) and non-treated (FIG. 3B) SCN, are shown in both phase contrast and after Hoechst nuclear staining. Many of the neurons in FIG. 3A show condensed and fragmented nuclei (arrows) indicative of apoptotic cells. In contrast, control neurons in FIG. 3B show predominantly diffuse nuclear staining (arrows). […] This percentage increased to […] for 500 μM H2O2. […] These changes were concentration-dependent and increased by mtGSH depletion. […] In contrast, immunoreactivity to cytochrome C oxidase (COX), a marker in the inner mitochondrial membrane remains independent of the mitochondrial insults by H2O2 (FIG. 3E). The differential staining between Cyt C and COX affords a secondary method to assess whether a given neuron has undergone mitochondrial permeability transition (MPT).

Assay [1] concerns cultured neonatal rat ventricular myocytes. Nature of the assay: H2O2-induced depolarization of mitochondrial membrane potential (TMRM fluorescence) in myocytes. In kind it is cell-based. The settings on record: for onset of H2O2-induced depolarization and loss of TMRM fluorescence: pretreatment 50 or 100 μM for 30 minutes.
Protocol: TMRM is a lipophilic cation that partitions selectively into the negatively charged mitochondria Neonatal cultured myocytes (6 days in culture) were loaded with 10 nM TMRM for 60 minutes at 37° C. The myocytes were pretreated with either 50 or 100 μM Mito GSH or 100 μM non-targeted GSH for 30 minutes and then washed to remove the antioxidants from the solution in which myocytes were suspended. As a control, myocytes were not pretreated with any drug. TMRM was excited at 555 nm and fluorescence emission was detected at 590 nm. Fluorescence images were taken every 2 minutes. At the arrow, myocytes were subjected to oxidative stress by adding 50 μM H2O2. Plots were normalized to baseline, and are shown as F/Fo, where F is the emitted fluorescence at any given time and Fo is the baseline fluorescence before addition of H2O2. […] The traces were drawn from the mean values of 7-10 experiments.
TMRM was used as an indicator of mitochondrial membrane potential. The myocytes were pretreated with 50 μM Mito GSH for 30 minutes and then washed to remove the antioxidant from the solution in which myocytes were suspended. In control, myocytes were not pretreated with any drug. TMRM was excited at 555 nm and fluorescence emission was detected at 590 nm. Fluorescence images were taken every 2 minutes to avoid photobleaching and phototoxicity. Myocytes were subjected to oxidative stress by adding 50 μM H2O2.
The subject of a further assay is brain striatal neurons. Particulars: pretreatment 100 μM; 100 μM NMDA; DCF fluorescence.
Assay [2] relates to Rat heart mitochondria. Nature of the assay: Mitochondrial membrane potential by TPP+ sensitive electrode under rotenone/t-BuOOH oxidative stress. In kind it is biochemical. The settings on record: pretreatment 5 mM at 4° C. for 30 minutes; 5 μM rotenone and 100 μM t-BuOOH; TPP+ signal.
Protocol: Mitochondrial membrane potential was measured by a TPP+ (tetraphenyl phosphonium) sensitive electrode. Rat heart mitochondria (1 mg protein/100 μl) were transferred to a beaker (at the first arrow) containing 0.9 ml of 150 mM KCl, 5 mM Hepes, 6 μM TPP+ and 5 mM succinate buffer. […] At the second arrow, mitochondria were subjected to oxidative stress by adding 5 μM rotenone (Complex I inhibitor) and 100 μM tert-butylhydroperoxide (t-BuOOH) to the buffer.
The test system of assay [3] is Rat heart mitochondria. Nature of the assay: Mitochondrial membrane potential by safranine fluorescence under rotenone/t-BuOOH oxidative stress. It counts as biochemical. The settings on record: pretreatment 5 mM for 30 minutes; 5 μM rotenone and 100 μM t-BuOOH.
Protocol: Mitochondrial membrane potential was measured by safranine. Safranine is a positively charged dye that accumulates in mitochondria on establishment of an electrical potential across the mitochondrial inner membrane. However, its fluorescence is quenched by its accumulation in mitochondria in response to mitochondrial membrane potential. Rat heart mitochondria (0.2 mg protein/200 μl) were transferred to a well containing 0.3 ml of 150 mM KCl, 5 mM Hepes, 15 μM safranine, 5 mM succinate buffer, 5 μM rotenone and 100 μM t-BuOOH. The mitochondria were placed in a multiplate reader. Fluorescence measurements were made with excitation and emission wavelengths of 485 and 585 nm respectively. Rotenone and t-BuOOH induced mitochondrial membrane potential resulting in a release of intramitochondrial safranine indicated by an increase in fluorescence signal.
In assay [4] the test system is Male Sprague-Dawley rat hearts. The settings on record: 50 μM for 10 min prior to ischemia.
Protocol: Male Sprague-Dawley rat hearts were retrograde (Langendorff) perfused with oxygenated Krebs Henseleit (KH) buffer in constant flow mode (12 mL/min/gram wet weight). Hearts were not electrically stimulated, and beat spontaneously at approximately 280 bpm. Left-ventricular pressure (LVP) was measured by a balloon inserted in the left ventricle, linked to a pressure transducer with digital recording at 500 Hz. […] Following an equilibration period of approximately 25 mm., global normothermic ischemia was imposed for 25 mm., followed by reperfusion for 30 mm as indicated by the arrows on the traces. For mNAC treatment, the drug was dissolved in KH buffer and infused via a port just above the aortic perfusion cannula, at a final concentration of 50 μM, for 10 min. prior to the onset of ischemia.
The ability of mitochondrially targeted N-acetylcysteine (mNAC) to improve post-ischemic recovery in rat heart was assessed. Male Sprague-Dawley rat hearts were retrograde (Langendorff) perfused with oxygenated Krebs Henseleit (KH) buffer in constant flow mode (12 mL/min/gram wet weight). Hearts were not electrically stimulated, and beat spontaneously at approximately 280 beats per minute. Left-ventricular pressure (LVP) was measured by a balloon inserted in the left ventricle, linked to a pressure transducer with digital recording at 500 Hz. […]

Protocol for brain striatal neurons: Intracellular reactive oxygen species (ROS) were measured by using the redox-sensitive dye, dichlorohydrofluorescein (H2DCFDA). […] Cultured striatal neurons (10 days in culture) were loaded with 50 nM H2DCFDA for 25 min. The neurons were excited at 488 nm and the image was acquired at 515 nm wavelength. ROS production was induced by treating the neurons with 100 μM NMDA. An increase in DCFDA fluorescence by NMDA treatment reflected an increased production of ROS or oxidative stress. […] Plots were normalized to baseline, and are shown as F/Fo, where F is the emitted fluorescence at any given time and Fo is the baseline fluorescence before addition of NMDA. […] The traces were drawn from the mean values of 3 experiments.

For `C=CC(O)CC(=O)O` (stereo not shown) [3-HP, 3-hydroxy-4-pentenoate], the “cells with condensed and fragmented nuclei” value in the assay on spinal cord neurons (mtGSH depletion by 3-HP prior to 250 μM H2O2 treatment) was 70%.

Take `N[C@@H](CCC(=O)N[C@@H](CS)C(=O)NCC(=O)O)C(=O)O` [GSH, glutathione, reference compound]: in assay [1] (pretreatment 100 μM), the “time for onset of H2O2-induced depolarization (versus control)” value was “did not significantly increase the time for onset of H2O2-induced depolarization”.

As for `OO` [H2O2], the “neurons with condensed and fragmented nuclei” value with spinal cord neurons (250 μM H2O2) is listed as roughly 42%.

In the case of `C[N+](C)(C)CCOC(=O)CNC(=O)[C@H](CS)NC(=O)CC[C@H](N)C(=O)O.[Cl-]` [Mito GSH, Glutathione choline ester chloride], the “NMDA-induced increase in ROS production” value with brain striatal neurons is given as “prevented NMDA-induced increase in ROS production”. Also, the “time for onset of H2O2-induced depolarization (versus control)” value in assay [1] (pretreatment 50 μM) and in assay [1] (pretreatment 100 μM) was “significantly enhanced the time for onset of H2O2-induced depolarization” each time. Also, the “time to which TMRM fluorescence persisted after H2O2 treatment” value in assay [1] (pretreatment 50 μM for 30 minutes, 50 μM H2O2, control invisible at 32 minutes) is 50 min. For the same molecule, in assay [1] (pretreatment 100 μM, control 25±3.2 min), the “Time for onset of H2O2-induced depolarization” value is 53 ± 3.6 min. Further, the “onset of H2O2-induced depolarization and loss of TMRM fluorescence” value in assay [1] (50 μM H2O2) is “delayed onset of H2O2-induced depolarization and loss of TMRM fluorescence”. In addition, in the assay with Rat heart mitochondria [2], the “oxidative stress-induced depolarization of mitochondrial membrane potential” value (“oxidative stress-induced depolarization” below) is recorded as “prevented the oxidative stress-induced depolarization significantly”.

For the molecule `CC(=O)N[C@@H](CSC(C)=O)C(=O)OCC[N+](C)(C)C` [N,S-acetyl cysteine choline ester, S,N-acetyl-L-cysteine choline ester], the “release of intramitochondrial safranine (depolarization of mitochondrial membrane potential)” value with Rat heart mitochondria [3] is on record as “diminished the release of intramitochondrial safaranine”.

`C[N+](C)(C)CCOC(=O)[C@@H](N)CS.[Cl-]` [cysteine choline ester, [2-(2-Amino-3-mercapto-L-propionyloxy)-ethyl]-trimethyl-ammonium chloride]: the “oxidative stress-induced depolarization” value with Rat heart mitochondria [2] is “prevented the oxidative stress-induced depolarization significantly”.

Turning to `CC(=O)N[C@@H](CS)C(=O)OCC[N+](C)(C)C` [mNAC, N-acetyl-L-cysteine choline ester], the “onset of ischemic contracture” value in assay [4] is on record as “appeared to delay the onset of ischemic contracture”. Also, in assay [4] (25 min global ischemia, 30 min reperfusion, control 4.1%), the “overall recovery of LV developed pressure (systolic minus diastolic)” value is on record as 15.7%. Moreover, the “onset of H2O2-induced depolarization and loss of TMRM fluorescence” value in assay [1] (50 μM H2O2) is “delayed onset of H2O2-induced depolarization and loss of fluorescence”. Further, in the assay with Rat heart mitochondria [2], the “oxidative stress-induced depolarization” value was “prevented the oxidative stress-induced depolarization significantly”.
